From US20210059977A1, “COMBINATION THERAPIES FOR THE TREATMENT OF AMYOTROPHIC LATERAL SCLEROSIS AND RELATED DISORDERS” (The General Hospital Corporation, priority 2018, published 2021)

Columns and labels:
SOD1^G93A mouse model [1] = experiment: Gait analysis (stride length and width); type: in vivo, mice; details: 6.3 mg/kg i.p.
Method: Gait Analysis Manual gait analysis was performed using a limb painting procedure similar to previous studies. Briefly, mice were first trained to traverse a horizontal corridor leading directly into their home cage by gentle nudges in the appropriate direction. On test days the bottoms of their hindlimbs were painted, by brushing with non-toxic food dye (Fisher Scientific), and the mice were allowed to walk the path to their home cage on a piece of paper. Three trials were performed at each experimental time point (P70, P90, P110, P130, P150). Stride length and width was determined by measuring the distance between the same points, on the ball mount region of the footprint, in two consecutive footprints and calculated from 2-3 hindpaw strides. Mean data from 4-6 strides across three trials was calculated.
(§1) 149 male and female age- and litter-matched transgenic (Tg) SOD1^G93A and wild-type (Wt) SOD1^G93A mice were used with the following breakdown: Females (19 WtSOD1-Vehicle, 17 WtSOD1-Cromolyn, 19 TgSOD1-Vehicle, and 17 TgSOD1-Cromolyn) and Males (18 WtSOD1-Vehicle, 21 WtSOD1-Cromolyn, 21 TgSOD1-Vehicle, 17 TgSOD1-Cromolyn).

[2] = tested on: Iba1-positive cell area in lumbar spinal cord; experiment: Iba1 immunohistochemical analysis (microgliosis); type: in vivo, mice; details: TgSOD1-Cromolyn vs TgSOD1-Vehicle
Method: Frozen spinal cord sections were fixed in 4% PFA/PBS for 72 hours and dehydrated with 30% sucrose in PBS. Sections were washed three times (5 minutes each) with PBS and incubated with 3% H2O2 in PBS for 15 minutes to quench endogenous peroxidases. Sections were subsequently washed three times with PBS and blocked using 5% (v/v) normal goat serum (Vector Laboratories), 0.3% Triton X-100 in PBS. Primary antibody against Iba1 (rabbit polyclonal, 1:400, Wako, #019-19741) was diluted in a buffer containing 2.5% (v/v) normal goat serum, 0.3% Triton X-100 and incubated overnight at 4° C. On the following day, samples were washed three times (10 minutes each) with PBS. The primary antibody was detected using a biotinylated secondary antibody (1:200) and VECTASTAIN Elite ABC HRP kit (Vector Laboratories), and developed with DAB (Vector Laboratories), following the provider's instructions. Sections were dehydrated in a series of graded ethanol, cleared in xylene, and cover-slipped with Cytoseal-XYL xylene-based mounting medium (Thermo Fisher Scientific). Sections were imaged using a light microscope (TE360 Eclipse; Nikon, Japan) at 10× magnification. The Iba1-positive cell area (area occupied by Iba1-positive cells divided by the total area) was quantified for each spinal cord section using ImageJ software (Voxel counter plugin, NIH, USA). Two to three sections were analyzed per mouse. […]

SOD1 gene = details: in vitro studies; cited from earlier work
SOD1^G93A mouse model [3] = experiment: Neurological scoring (ALS TDI criteria); type: in vivo, mice; details: 6.3 mg/kg i.p.
Method: Beginning at P50, weight and neurological score (using the ALS TDI criteria) (Hatzipetros, T., et al. (2015). “A Quick Phenotypic Neurological Scoring System for Evaluating Disease Progression in the SOD1-G93A Mouse Model of ALS.” J Vis Exp(104); Leitner M., et. al. (2009). “Working with ALS mice: Guidelines for preclinical testing & colony management.” The Jackson Laboratory) were recorded for each mouse every 5 days until death or euthanasia. ALS TDI criteria are as follows: • Score of 0: Full extension of hind legs away from lateral midline when mouse is suspended by its tail, and mouse can hold this for two seconds, suspended two to three times. • Score of 1: Collapse or partial collapse of leg extension towards lateral midline (weakness) or trembling of hind legs during tail suspension. • Score of 2: Toes curl under at least twice during walking of 12 inches, or any part of foot is dragging along cage bottom/table. • Score of 3: Rigid paralysis or minimal joint movement, foot not being used for generating forward motion. • Score of 4: Mouse cannot right itself within 15 seconds after being placed on either side. *Mice were euthanized upon obtaining a score of 4.
as §1

SOD1^G93A mouse model [4] = experiment: Rotarod; type: in vivo, mice; details: TgSOD1-Cromolyn vs TgSOD1-Vehicle; 6.3 mg/kg i.p.
Method: Mice were placed on a fixed speed (16 rpm) rotating rod (3.0 cm) (Rotamex, Columbus Instruments) as previously described. Mice were trained to remain on the rotarod for 180 seconds once at P40. For each experimental time point (P70, P90, P110, P130, P150), the time mice spent on the rotating rod was calculated up to a maximum of 180 seconds. Three trials were performed for each time point and the greatest value for each session was used for analysis.
as §1

SOD1^G93A mouse model [5] = experiment: Paw Grip Endurance Test (PaGE); type: in vivo, mice; details: TgSOD1-Cromolyn vs TgSOD1-Vehicle
Method: The PaGE test was performed as previously described. Briefly, mice were placed on the wire lid of a conventional housing cage that was inverted and held at ˜45 cm above an open cage bottom. […] The largest value from three individual trials was used for analysis.
as §1

O=C(O)c1cc(=O)c2c(OCC(O)COc3cccc4oc(C(=O)O)cc(=O)c34)cccc2o1 [cromolyn, cromolyn sodium]
stride length (SOD1^G93A mouse model [1]; TgSOD1 mice): no effect on stride length | stride width (SOD1^G93A mouse model [1]; all groups, two-way ANOVA): no effect of treatment | percentage of Iba1-positive cell area in the lumbar spinal cord [2]: no significant change | effect on SOD1 gene (SOD1 gene): inhibits the SOD1 gene | neurological score (SOD1^G93A mouse model [3]; TgSOD1-Cromolyn vs TgSOD1-Vehicle, all mice, P90, P100, P110, P130, P140): significantly delayed disease onset and progression | neurological score (SOD1^G93A mouse model [3]; female mice, P90, P100, P120, P130, P140): significant increase in neurological score in the female TgSOD1-Vehicle treated group compared to TgSOD1-Cromolyn group | neurological score (SOD1^G93A mouse model [3]; male mice, P90, P100, P110): significant increase in neurological score in male TgSOD1-Vehicle treated group compared to TgSOD1-Cromolyn group | rotarod performance (SOD1^G93A mouse model [4]): no difference in rotarod performance | PaGE performance (SOD1^G93A mouse model [5]; 6.3 mg/kg i.p., all mice, P120 and P140): significant improvement in PaGE performance | PaGE performance (SOD1^G93A mouse model [5]; female mice, P100): greater deficits in PaGE performance | PaGE performance (SOD1^G93A mouse model [5]; female mice, P140): significant improvement | PaGE performance (SOD1^G93A mouse model [5]; male mice, P120): significant improvement in PaGE
